From patent US10035806B2, “Derivatized corroles and metallocorroles and their use as imaging and therapeutic agents” (CALIFORNIA INSTITUTE OF TECHNOLOGY, priority 2015, dated 2018)

Tests used:
[1] = system: 60 human tumor cell lines (NCI60); assay: NCI60 anticancer drug screen, whole panel; type: cell-based; settings: 10 μM, 48 h
Description: (§1) The aminocaproate-substituted corrole Complex 3 was submitted to NCI for cytotoxic screening at a single high dose (10−5M) in a panel of 60 human tumor cell lines (NCI60). Details of the cytotoxicity assessment in the NCI anticancer drug screen have been described previously, in Monks A, et al. (1991) Feasibility of a high-flux anticancer drug screen using a diverse panel of cultured human tumor cell lines. J Natl Cancer Inst 83(11):757-766, this reference being incorporated by reference for these teachings.
In view of the promising results observed for carboxylated corroles, Complex 3 was selected for expanded cell screening to uncover additional susceptible cancer cell lines. The cytotoxic activity of Complex 3 was tested at a dose of 10^−5 M against 60 human cancer cell lines representing nine distinct tumor types in the anticancer screening program of the National Cancer Institute (NCI). The in vitro parameters for cytotoxicity, growth percent, and lethality were obtained for Complex 3 and reported as a mean graph of the percent growth of treated cells (FIG. 7). Bars in the mean graph depict the deviation of individual tumor cell lines from the overall mean value for all cells tested. Bars that project to the right of the mean represent cell lines that are more sensitive to Complex 3, whereas cell lines less sensitive to the compound display bars that project to the left. […]

A498 = assay: NCI60 anticancer drug screen; type: cell-based, human; settings: A498 (Renal Cancer), 10 μM, 48 h
Description: as §1
(§2) In view of the promising results observed for carboxylated corroles, Complex 3 was selected for expanded cell screening to uncover additional susceptible cancer cell lines. The cytotoxic activity of Complex 3 was tested at a dose of 10^−5 M against 60 human cancer cell lines representing nine distinct tumor types in the anticancer screening program of the National Cancer Institute (NCI). The in vitro parameters for cytotoxicity, growth percent, and lethality were obtained for Complex 3 and reported as a mean graph of the percent growth of treated cells (FIG. 7). Bars in the mean graph depict the deviation of individual tumor cell lines from the overall mean value for all cells tested. Bars that project to the right of the mean represent cell lines that are more sensitive to Complex 3, whereas cell lines less sensitive to the compound display bars that project to the left.
(§3) The numerical values associated with this assay represent growth relative to the no-drug control and the numbers of cells at time 0 (FIG. 7). This allows detection of both growth inhibition (values between 0 and 100) and lethality (values less than 0). For example, a value of 100 signifies no growth inhibition, 40 means 60% growth inhibition, 0 means no net growth over the course of the experiment, −40 means 40% lethality, and −100 indicates all cells are dead. […] Growth inhibitions reflect cytostatic activity of the compound as previously shown for Complex 2. In contrast, cell lethality is only evident in melanoma cells, specifically the LOX IMVI and SK-MEL-28 cell lines.

A549/ATCC = assay: NCI60 anticancer drug screen; type: cell-based, human; settings: A549/ATCC (Non-small-cell lung cancer), 10 μM, 48 h
Description: as §1, §2, §3

ACHN = assay: NCI60 anticancer drug screen; type: cell-based, human; settings: ACHN (Renal Cancer), 10 μM, 48 h
Description: as §1, §2, §3

CAK-1 = assay: NCI60 anticancer drug screen; type: cell-based, human; settings: CAK-1 (Renal Cancer), 10 μM, 48 h
Description: as §1, §2, §3

EKVX = assay: NCI60 anticancer drug screen; type: cell-based, human; settings: EKVX (Non-small-cell lung cancer), 10 μM, 48 h
Description: as §1, §2, §3

HL-60 (TB) = assay: NCI60 anticancer drug screen; type: cell-based, human; settings: HL-60 (TB) (Leukemia), 10 μM, 48 h
Description: as §1, §2, §3

HOP-62 = assay: NCI60 anticancer drug screen; type: cell-based, human; settings: HOP-62 (Non-small-cell lung cancer), 10 μM, 48 h
Description: as §1, §2, §3

HS 578T = assay: NCI60 anticancer drug screen; type: cell-based, human; settings: HS 578T (Breast Cancer), 10 μM, 48 h
Description: as §1, §2, §3

IGROV1 = assay: NCI60 anticancer drug screen; type: cell-based, human; settings: IGROV1 (Ovarian Cancer), 10 μM, 48 h
Description: as §1, §2, §3

KM12 = assay: NCI60 anticancer drug screen; type: cell-based, human; settings: KM12 (Colon cancer), 10 μM, 48 h
Description: as §1, §2, §3

M14 = assay: NCI60 anticancer drug screen; type: cell-based, human; settings: M14 (Melanoma), 10 μM, 48 h
Description: as §1, §2, §3

MALME-3M = assay: NCI60 anticancer drug screen; type: cell-based, human; settings: MALME-3M (Melanoma), 10 μM, 48 h
Description: as §1, §2, §3

MDA-MB-435 = assay: NCI60 anticancer drug screen; type: cell-based, human; settings: MDA-MB-435 (Melanoma), 10 μM, 48 h
Description: as §1, §2, §3

MOLT-4 = assay: NCI60 anticancer drug screen; type: cell-based, human; settings: MOLT-4 (Leukemia), 10 μM, 48 h
Description: as §1, §2, §3

NCI-H322M = assay: NCI60 anticancer drug screen; type: cell-based, human; settings: NCI-H322M (Non-small-cell lung cancer), 10 μM, 48 h
Description: as §1, §2, §3

NCI-H522 = assay: NCI60 anticancer drug screen; type: cell-based, human; settings: NCI-H522 (Non-small-cell lung cancer), 10 μM, 48 h
Description: as §1, §2, §3

NCl/ADR-RES = assay: NCI60 anticancer drug screen; type: cell-based, human; settings: NCl/ADR-RES (Ovarian Cancer), 10 μM, 48 h
Description: as §1, §2, §3

OVCAR-5 = assay: NCI60 anticancer drug screen; type: cell-based, human; settings: OVCAR-5 (Ovarian Cancer), 10 μM, 48 h
Description: as §1, §2, §3

OVCAR-8 = assay: NCI60 anticancer drug screen; type: cell-based, human; settings: OVCAR-8 (Ovarian Cancer), 10 μM, 48 h
Description: as §1, §2, §3

RXF 398 = assay: NCI60 anticancer drug screen; type: cell-based, human; settings: RXF 398 (Renal Cancer), 10 μM, 48 h
Description: as §1, §2, §3

SK-OV-3 = assay: NCI60 anticancer drug screen; type: cell-based, human; settings: SK-OV-3 (Ovarian Cancer), 10 μM, 48 h
Description: as §1, §2, §3

SN12C = assay: NCI60 anticancer drug screen; type: cell-based, human; settings: SN12C (Renal Cancer), 10 μM, 48 h
Description: as §1, §2, §3

SNB-75 = assay: NCI60 anticancer drug screen; type: cell-based, human; settings: SNB-75 (CNS Cancer), 10 μM, 48 h
Description: as §1, §2, §3

T-47D = assay: NCI60 anticancer drug screen; type: cell-based, human; settings: T-47D (Breast Cancer), 10 μM, 48 h
Description: as §1, §2, §3

U251 = assay: NCI60 anticancer drug screen; type: cell-based, human; settings: U251 (CNS Cancer), 10 μM, 48 h
Description: as §1, §2, §3

UACC-257 = assay: NCI60 anticancer drug screen; type: cell-based, human; settings: UACC-257 (Melanoma), 10 μM, 48 h
Description: as §1, §2, §3

UO-31 = assay: NCI60 anticancer drug screen; type: cell-based, human; settings: UO-31 (Renal Cancer), 10 μM, 48 h
Description: as §1, §2, §3

Q: Which results are given for `O=C(O)CCCCCNc1c(F)c(F)c(C2=C3C=CC4=[N+]3[Ga-]35[n]6c2ccc6C(c2c(F)c(F)c(F)c(F)c2F)=c2ccc([n]23)=C(c2c(F)c(F)c(F)c(F)c2F)c2ccc4[n]25)c(F)c1F` (centres unmarked) [Complex 3]?
A: activity against all NCI60 cell lines derived from nine tumor types [1]: highly active; average growth inhibition ([1]; NCI60 panel): 70%; Growth inhibition, % (A498): 99.0%; Growth inhibition, % (A549/ATCC): 82.7%; Growth inhibition, % (ACHN): 73.2%; Growth inhibition, % (CAK-1): 71.7%; Growth inhibition, % (EKVX): 59.7%; Growth inhibition, % (HL-60 (TB)): 86.1%; Growth inhibition, % (HOP-62): 44.9%; Growth inhibition, % (HS 578T): 81.2%; Growth inhibition, % (IGROV1): 55.7%; Growth inhibition, % (KM12): 80.6%; Growth inhibition, % (M14): 84.1%; Growth inhibition, % (MALME-3M): 50.4%; Growth inhibition, % (MDA-MB-435): 90.8%; Growth inhibition, % (MOLT-4): 86.0%; Growth inhibition, % (NCI-H322M): 32.9%; Growth inhibition, % (NCI-H522): 44.6%; Growth inhibition, % (NCl/ADR-RES): 52.7%; Growth inhibition, % (OVCAR-5): 53.1%; Growth inhibition, % (OVCAR-8): 67.3%; Growth inhibition, % (RXF 398): 96.7%; Growth inhibition, % (SK-OV-3): 32.9%; Growth inhibition, % (SN12C): 78.8%; Growth inhibition, % (SNB-75): 30.7%; Growth inhibition, % (T-47D): 45.9%; Growth inhibition, % (U251): 77.4%; Growth inhibition, % (UACC-257): 37.2%; Growth inhibition, % (UO-31): 64.7%
